Measurements as given in US20090030024A1, “THIAZOLES AS FUNGICIDES” (priority 2005, published 2009).

Test: logP determination by retention times (calibration with alkan-2-ones)
Conditions: * HPLC reversed-phase C18, 40° C., mobile phase 0.1% aqueous formic acid and acetonitrile, linear gradient 10% to 95% acetonitrile

Row | SMILES | chromatographic logP | logP
1 | COCCNc1nc(C)c(-c2ccnc(Nc3ccc(NC(C)=O)cc3)n2)s1 [Example 683, N-{4-[(4-{2-[(2-methoxyethyl)amino]-4-methyl-1,3-thiazol-5-yl}pyrimidin-2-yl)amino]phenyl}acetamide] | 1.35 | 
2 | CNc1nc(C)c(-c2ccnc(Nc3cccc(NC(C)=O)c3)n2)s1 [Example 684, N-[3-({4-[4-methyl-2-(methylamine)-1,3-thiazol-5-yl]pyrimidin-2-yl}amino)phenyl]acetamide] |  | 1.26*
3 | CC(=O)c1cccc(Nc2nccc(-c3sc(N(C)C)nc3C)n2)c1 [Example 685, 1-[3-({4-[2-(dimethylamine)-4-methyl-1,3-thiazol-5-yl]pyrimidin-2-yl}amino)phenyl]ethanone] |  | 1.89*
4 | Cc1nc(N(C)C)sc1-c1ccnc(Nc2cccc([N+](=O)[O-])c2)n1 [Example 686, 4-[2-(dimethylamine)-4-methyl-1,3-thiazol-5-yl]-N-(3-nitrophenyl)pyrimidine-2-amine] |  | 2.34*
5 | Cc1nc(N(C)C)sc1-c1ccnc(Nc2cccc(Cl)c2)n1 [Example 687, N-(3-chlorophenyl)-4-[2-(dimethylamine)-4-methyl-1,3-thiazol-5-yl]pyrimidine-2-amine] |  | 2.62*
6 | Cc1nc(N(C)C)sc1-c1ccnc(Nc2ccccc2)n1 [Example 688, 4-[2-(dimethylamine)-4-methyl-1,3-thiazol-5-yl]-N-phenylpyrimidine-2-amine] |  | 1.98*
7 | COCCNc1nc(C)c(-c2ccnc(Nc3cccc(C(C)=O)c3)n2)s1 [Example 689, 1-{3-[(4-{2-[(2-methoxyethyl)amino]-4-methyl-1,3-thiazol-5-yl}pyrimidin-2-yl)amino]phenyl}ethanone] | 1.69 | 
8 | COCCNc1nc(C)c(-c2ccnc(Nc3cccc(O)c3)n2)s1 [Example 690, 3-[(4-{2-[(2-methoxyethyl)amino]-4-methyl-1,3-thiazol-5-yl}pyrimidin-2-yl)amino]phenol] | 1.38 | 
9 | COCCNc1nc(C)c(-c2ccnc(Nc3ccc(NS(C)(=O)=O)cc3)n2)s1 [Example 691, N-{4-[(4-{2-[(2-methoxyethyl)amino]-4-methyl-1,3-thiazol-5-yl}pyrimidin-2-yl)amino]phenyl}methanesulphonamide] | 1.39 | 
10 | Cc1cc(Nc2nccc(-c3sc(N(C)C)nc3C(F)(F)F)n2)ccc1F [Example 692, 4-[2-(dimethylamine)-4-(trifluoromethyl)-1,3-thiazol-5-yl]-N-(4-fluoro-3-methylphenyl)pyrimidine-2-amine] |  | 4.43*
11 | COC(=O)Nc1ccc(Nc2nccc(-c3sc(C)nc3C(F)(F)F)n2)cc1 [Example 693, methyl-[4-({4-[2-methyl-4-(trifluoromethyl)-1,3-thiazol-5-yl]pyrimidin-2-yl}amino)phenyl]carbamate] | 2.7 | 
12 | COC(=O)Nc1ccc(Nc2nccc(-c3sc(N(C)C)nc3C(F)(F)F)n2)cc1 [Example 694, methyl-[4-({4-[2-(dimethylamine)-4-(trifluoromethyl)-1,3-thiazol-5-yl]pyrimidin-2-yl}amino)phenyl]carbamate] |  | 3.04*
13 | CN(C)c1nc(C(F)(F)F)c(-c2ccnc(Nc3cccc(Cl)c3)n2)s1 [Example 695, N-(3-chlorophenyl)-4-[2-(dimethylamine)-4-(trifluoromethyl)-1,3-thiazol-5-yl]pyrimidine-2-amine] |  | 4.51*
14 | Cc1nc(C(F)(F)F)c(-c2ccnc(Nc3ccc(O)cc3)n2)s1 [Example 696, 4-({4-[2-methyl-4-(trifluoromethyl)-1,3-thiazol-5-yl]pyrimidin-2-yl}amino)phenol] | 2.39 | 
15 | CN(C)c1nc(C(F)(F)F)c(-c2ccnc(Nc3ccc(O)cc3)n2)s1 [Example 697, 4-({4-[2-(dimethylamine)-4-(trifluoromethyl)-1,3-thiazol-5-yl]pyrimidin-2-yl}amino)phenol] |  | 2.64*
16 | CC(=O)Nc1ccc(Nc2nccc(-c3sc(C)nc3C(F)(F)F)n2)cc1 [Example 698, N-[4-({4-[2-methyl-4-(trifluoromethyl)-1,3-thiazol-5-yl]pyrimidin-2-yl}amino)phenyl]acetamide] | 2.26 | 
17 | CC(=O)Nc1ccc(Nc2nccc(-c3sc(N(C)C)nc3C(F)(F)F)n2)cc1 [Example 699, N-[4-({4-[2-(dimethylamine)-4-(trifluoromethyl)-1,3-thiazol-5-yl]pyrimidin-2-yl}amino)phenyl]acetamide] |  | 2.58*
18 | Cc1nc(C(F)(F)F)c(-c2ccnc(Nc3ccc(N(C)C)c(Cl)c3)n2)s1 [Example 700, 2-chloro-N1,N1-dimethyl-N4-{4-[2-methyl-4-(trifluoromethyl)-1,3-thiazol-5-yl]pyrimidin-2-yl}benzene-1,4-diamine] | 2.88 | 
19 | CN(C)c1nc(C(F)(F)F)c(-c2ccnc(Nc3ccc(N(C)C)c(Cl)c3)n2)s1 [Example 701, 2-chloro-N4-{4-[2-(dimethylamine)-4-(trifluoromethyl)-1,3-thiazol-5-yl]pyrimidin-2-yl}-N1,N1-dimethylbenzene-1,4-diamine] |  | 3.46*

Row | SMILES | chromatographic logP | logP
20 | CN(C)c1nc(C(F)(F)F)c(-c2ccnc(Nc3cccc(O)c3)n2)s1 [Example 702, 3-({4-[2-(dimethylamine)-4-(trifluoromethyl)-1,3-thiazol-5-yl]pyrimidin-2-yl}amino)phenol] |  | 2.84*
21 | Cc1nc(C(F)(F)F)c(-c2ccnc(Nc3ccc4c(c3)OCO4)n2)s1 [Example 703, N-1,3-benzodioxol-5-yl-4-[2-methyl-4-(trifluoromethyl)-1,3-thiazol-5-yl]pyrimidine-2-amine] | 3.21 | 
22 | CN(C)c1nc(C(F)(F)F)c(-c2ccnc(Nc3ccc4c(c3)OCO4)n2)s1 [Example 704, N-1,3-benzodioxol-5-yl-4-[2-(dimethylamine)-4-(trifluoromethyl)-1,3-thiazol-5-yl]pyrimidine-2-amine] |  | 3.63*
23 | Cc1nc(C(F)(F)F)c(-c2ccnc(Nc3ccc(F)c(F)c3)n2)s1 [Example 705, N-(3,4-difluorophenyl)-4-[2-methyl-4-(trifluoromethyl)-1,3-thiazol-5-yl]pyrimidine-2-amine] | 3.76 | 
24 | COc1cc(Nc2nccc(-c3sc(C)nc3C(F)(F)F)n2)cc(OC)c1 [Example 706, N-(3,5-dimethoxyphenyl)-4-[2-methyl-4-(trifluoromethyl)-1,3-thiazol-5-yl]pyrimidine-2-amine] | 3.41 | 
25 | COc1cc(Nc2nccc(-c3sc(N(C)C)nc3C(F)(F)F)n2)cc(OC)c1 [Example 707, N-(3,5-dimethoxyphenyl)-4-[2-(dimethylamine)-4-(trifluoromethyl)-1,3-thiazol-5-yl]pyrimidine-2-amine] |  | 3.85*
26 | COc1cc(Nc2nccc(-c3sc(C)nc3C(F)F)n2)cc(OC)c1OC [Example 708, 4-[4-(difluoromethyl)-2-methyl-1,3-thiazol-5-yl]-N-(3,4,5-trimethoxyphenyl)pyrimidine-2-amine] | 2.61 | 
27 | CC(=O)c1cccc(Nc2nccc(-c3sc(C)nc3C(F)F)n2)c1 [Example 709, 1-[3-({4-[4-(difluoromethyl)-2-methyl-1,3-thiazol-5-yl]pyrimidin-2-yl}amino)phenyl]ethanone] | 2.64 | 
28 | Cc1nc(C(F)F)c(-c2ccnc(Nc3ccccc3)n2)s1 [Example 710, 4-[4-(difluoromethyl)-2-methyl-1,3-thiazol-5-yl]-N-phenylpyrimidine-2-amine] | 2.97 | 
29 | CCc1nc(C)c(-c2ccnc(Nc3ccc(C(=O)NCCOC)cc3)n2)s1 [Example 711, 4-{[4-(2-ethyl-4-methyl-1,3-thiazol-5-yl)pyrimidin-2-yl]amino}-N-(2-methoxyethyl)benzamide] | 2.09 | 
30 | COC(=O)NCc1cccc(Nc2nccc(-c3sc(SC)nc3C)n2)c1 [Example 712, methyl-[3-({4-[4-methyl-2-(methylthio)-1,3-thiazol-5-yl]pyrimidin-2-yl}amino)benzyl]carbamate] | 2.16 | 
31 | COc1cc(Nc2nccc(-c3sc(-c4cccnc4)nc3C)n2)cc(OC)c1OC [Example 713, 4-(4-methyl-2-pyridin-3-yl-1,3-thiazol-5-yl)-N-(3,4,5-trimethoxyphenyl)pyrimidine-2-amine] | 2.56 | 
32 | CCc1nc(C)c(-c2ccnc(Nc3cccnc3)n2)s1 [Example 714, 4-(2-ethyl-4-methyl-1,3-thiazol-5-yl)-N-pyridin-3-ylpyrimidine-2-amine] | 1.35 | 
33 | Cc1nc(-c2cccnc2)sc1-c1ccnc(Nc2ccccc2)n1 [Example 715, 4-(4-methyl-2-pyridin-3-yl-1,3-thiazol-5-yl)-N-phenylpyrimidine-2-amine] | 3.04 | 
34 | Cc1nc(C)c(-c2ccnc(Nc3cccnc3)n2)s1 [Example 716, 4-(2,4-dimethyl-1,3-thiazol-5-yl)-N-pyridin-3-ylpyrimidine-2-amine] | 0.98 | 
35 | CCc1nc(C)c(-c2ccnc(Nc3ccc(C(C)=O)cc3)n2)s1 [Example 717, 1-(4-{[4-(2-ethyl-4-methyl-1,3-thiazol-5-yl)pyrimidin-2-yl]amino}phenyl)ethanone] | 2.6 | 
36 | CCc1nc(C)c(-c2ccnc(Nc3ccc(C)c(C)c3)n2)s1 [Example 718, N-(3,4-dimethylphenyl)-4-(2-ethyl-4-methyl-1,3-thiazol-5-yl)pyrimidine-2-amine] | 3.71 | 
37 | COc1cc(Nc2nccc(-c3sc(NCC4CCCO4)nc3C)n2)cc(OC)c1 (centres unmarked) [Example 719, N-(3,5-dimethoxyphenyl)-4-{4-methyl-2-[(tetrahydrofuran-2-ylmethyl)amino]-1,3-thiazol-5-yl}pyrimidine-2-amine] | 2.02 | 
38 | Cc1nc(NCC2CCCO2)sc1-c1ccnc(Nc2ccc(N3CCCC3=O)cc2)n1 (centres unmarked) [Example 720, 1-{4-[(4-{4-methyl-2-[(tetrahydrofuran-2-ylmethyl)amino]-1,3-thiazol-5-yl}pyrimidin-2-yl)amino]phenyl}pyrrolidin-2-one] | 1.6 | 
